In US12048720B2, “Compositions comprising bacterial strains” (CJ BIOSCIENCE, INC., priority 2017, dated 2024):

System: SH-SY5Y neuroblastoma cells
Test: Neuroprotection / cell viability of differentiated SH-SY5Y neuroblastoma cells with or without MPP (CCK-8)
Format: cell-based, human
Conditions: RA-differentiated SHSY-5Y cells treated with MPP+, FIG. 11
Protocol: Neuroblastoma cells were treated with compositions comprising bacterial strains according to the invention. The SH-SY5Y neuroblastoma cells used are dopamine producing and well-established as an in vitro model for studying neurodegenerative diseases. The ability of the bacterial strains to increase neuroproliferation was observed. The neuroblastoma cells were treated also treated dopaminergic neurotoxin 1-methyl-4-phenylpyridinium (MPP), which induces permanent symptoms of Parkinson's disease in neuroblastoma cells. The ability of the bacterial strains to act as a neuroprotectant against MPP was investigated.
SH-SY5Y neuroblastoma cells were purchased from ECCACC (Cat. no: 94030304) and were grown in MEM (Sigma Aldrich, cat n. M2279) supplemented with Nutrient Mixture F-12 Ham (Sigma Aldrich, cat n. N4888).
Once grown the SH-SY5Y neuroblastoma cells were plated on 96-well plate at 11,000 cells/well and incubated for 2 days. […] Cell viability was measured by using CCK-8 reagent (Sigma Aldrich, Cell Counting Kit—8, cat. n. 96992-3000TESTS-F) and read at 450 nm wavelength.
RA-differentiated SHSY-5Y cells were treated with MPP+, the active metabolite of MPTP, a chemical widely used to mimic in vitro and in vivo some of the features of PD pathology. Cell viability was measured as the rate of mitochondria respiration (FIG. 11).

O=c1c(O)c(-c2ccc(O)c(O)c2)oc2cc(O)cc(O)c12 [quercetin]
protection compared to YCFA-MPP+ treated sample: about 20%
